# Ends that are not written are not given here.
# Experiments:
# [1] = tested on: rats fed a high-fat diet (diet induced obesity); assay: Chronic treatment in non-diabetic model of diet induced obesity: body weight, total body fat, liver fat, intramyocellular fat (MRS); type: in vivo; conditions: 6 weeks, linagliptin 10 mg/kg, sibutramine 5 mg/kg; for Body weight % baseli. / Intra-myocellular fat % baseli. / Liver fat % baseli. / Total body fat % baseli.: versus baseline; for Body weight % contr. / Intra-myocellular fat % contr. / Liver fat % contr. / Total body fat % contr.: versus control; for Intra-myocellular fat % baseli. / Liver fat % baseli. / Total body fat % baseli. / Intra-myocellular fat % contr. / Liver fat % contr. / Total body fat % contr.: MRS
# Procedure: Magnetic resonance spectroscopy (MRS) analysis of total body fat, muscle fat, and liver fat is performed before treatment and at the end of the study.
# [2] = 2 h postprandial blood glucose excursions in patients with type 2 diabetes; type: in vivo, human; conditions: Day 1; oral doses ≧2.5 mg
# [3] = tested on: non-obese-diabetic (NOD) mice; assay: Onset of diabetes and beta-cell mass in non-obese-diabetic (NOD) mice; type: in vivo; conditions: female NOD mice
# Description: Though reduced pancreatic T-cell migration and altered cytokine production is considered important players for the onset of insulinitis the exact mechanism and effects on the pancreatic cell pool is still incompletely understood.
# Bi-weekly plasma samples are obtained to determine onset of diabetes (BG>11 mmol/l).
# RIP-B7.1 tg mice = assay: Diabetes development in RIP-B7.1 transgenic mice after proinsulin/insulin A-chain plasmid vaccination; type: in vivo
# Description: Dipeptidyl peptidase (DPP)-4 inhibitors block incretin degradation by DPP-4. […] As in humans, diabetes development in this model critically depends on activated CD8 T cells. Diabetes develops in RIP-B7.1 tg mice after a single intramuscular (i.m.) vaccination (vac) of proinsulin (PI) plasmid DNA.
# Vac A: Diabetes is induced using a PI-encoding plasmid resulting in an aggressive insulitis. Vac B: vac with insulin A-chain encoding plasmid results in a delayed diabetes development compared to vac A. With vac A (n=20 tg mice), diabetes incidence is 80% 5 weeks after vac, whereas vac B (n=34) results in 79% incidence after 12 wks in placebotreated mice.
# [4] = tested on: normal-weight male Sprague-Dawley rats; assay: Acute s.c. dosing, nocturnal food intake in normal-weight rats; type: in vivo; conditions: linagliptin 0.1-0.5 mg/kg, GLP-1 0.2-0.4 mg/kg
# Procedure: (§1) However, it is not known whether DPP-IV inhibition in conjunction with glucagon-like peptide (GLP)-1 administration would influence body weight.
# (§2) Materials and methods: Normal-weight and DIO male Sprague-Dawley rats were used for acute and chronic dosing experiments, respectively. All rats were stratified to treatment groups according to individual body weight and whole-body fat mass. Linagliptin+GLP-1 combination treatment was evaluated in both acute and chronic treatment settings and compared with monotherapy and vehicle controls. […] For comparison, DIO rats were exposed to 28 days of liraglutide monotherapy. All drugs were administered twice daily subcutaneously (s.c.). […] In comparison, chronic liraglutide (0.2 mg/kg) treatment evoked a long-lasting hypophagic response with a weight loss of −10.8±0.5% and 12.2±0.6% at day 14 and 28, respectively.
# [5] = tested on: DIO male Sprague-Dawley rats; assay: Chronic s.c. dosing, body weight and food intake in diet-induced obese (DIO) rats; type: in vivo; conditions: DIO rat, s.c. twice daily
# Procedure: as §1, §2
# clinical = conditions: human, urine, po
# [6] = Safety and tolerability in people with type 2 diabetes
# [7] = Pharmacokinetics of BI 1356 in patients with type 2 diabetes, multiple oral doses once daily for 12 days
# [8] = 2.5 mg oral once daily, steady state (Day 12), gMean (gCV)
# [9] = 10 mg oral once daily, steady state (Day 12), gMean (gCV)
compound,measurement,setting,value
"CC(C)CC(N(C)C)C1(c2ccc(Cl)cc2)CCC1 (stereo not drawn) [Sibutramine, reference compound]",Body weight % baseli.,[1],+1%
same,Body weight % contr.,[1],−12%
same,Intra-myocellular fat % baseli.,[1],−34%
same,Liver fat % baseli.,[1],−29%
same,Total body fat % baseli.,[1],−0.4%
same,Intra-myocellular fat % baseli.,[1]; listed as sibutramine,−34%
same,Intra-myocellular fat % contr.,[1],−55%
same,Liver fat % contr.,[1],−30%
same,Total body fat % contr.,[1],−12%
same,Liver fat % contr.,[1]; listed as sibutramine,−30%
same,Total body fat % contr.,[1]; listed as sibutramine,−12%
CC#CCn1c(N2CCC[C@@H](N)C2)nc2c1c(=O)n(Cc1nc(C)c3ccccc3n1)c(=O)n2C [linagliptin],decrease in 2 h postprandial blood glucose excursions,[2],≥ 80%
same,Body weight % baseli.,[1],+12%
same,Body weight % contr.,[1],−3%
same,Body weight % contr.,[1]; listed as Linagliptin,−3%
same,Intra-myocellular fat % baseli.,[1],−24%
same,Liver fat % baseli.,[1],−30%
same,Total body fat % baseli.,[1],+5%
same,Intra-myocellular fat % baseli.,[1]; listed as Linagliptin,−24%
same,Intra-myocellular fat % contr.,[1],−36%
same,Liver fat % contr.,[1],−39%
same,Total body fat % contr.,[1],−5%
same,Liver fat % contr.,[1]; listed as Linagliptin,−39%
same,Total body fat % contr.,[1]; listed as Linagliptin,−5%
same,incidence of diabetes (BG>11 mmol/l) at the end of the study period,"[3]; 60 days, diet with 0.083 g linagliptin/kg chow (3-10 mg/kg p.o.), control 18 of 30",9 out of 30
same,"beta cell mass (insulin immunoreactivity, stereology)","[3]; 60 days, linagliptin in diet, vehicle 0.18±0.03",0.48±0.09 mg
same,total islet mass,"[3]; 60 days, linagliptin in diet, vehicle 0.40±0.04",0.70 ± 0.09 mg
same,peri-islet infiltrating lymphocytes,"[3]; 60 days, linagliptin in diet, vehicle 1.06±0.15",0.79 ± 0.12 mg
same,active plasma GLP-1 at termination,[3]; versus control,higher
same,Serum levels of the regulatory cytokine IL-10,RIP-B7.1 tg mice; linagliptin 3 mg/kg/day oral,significantly upregulated
same,islet insulin content after diabetes onset,RIP-B7.1 tg mice; linagliptin 3 mg/kg/day oral,partially preserved
same,number of islet antigen-specific CD8 T cells expressing IFN-γ (FACS and ELISPOT),RIP-B7.1 tg mice; linagliptin 3 mg/kg/day oral versus placebo,equal number
same,diabetes incidence,"RIP-B7.1 tg mice; vac A (PI-encoding plasmid), after wk 8 of follow-up, linagliptin 3 mg/kg/day oral, placebo 80% at 5 wks",80%
same,diabetes incidence,"RIP-B7.1 tg mice; vac B (insulin A-chain plasmid), during 14 wks follow up, linagliptin 3 mg/kg/day oral, control 92% wk 14",≤ 62%
same,effect on nocturnal food intake,[4],no effect
same,effect of 14 days of monotherapy,[5],no effect
same,CL renal,clinical,14 to 70 mL/min
same,CL renal,clinical; 5 mg,~70 mL/min
same,safety and tolerability,[6],placebo-like safety and tolerability
same,"feT,ss","[7]; 1 mg oral once daily, steady state (Day 12), gMean (gCV)",3.34 (38.3) %
same,fe0-24,"[7]; 2.5 mg oral once daily for 12 days, gMean (gCV)",0.139 (51.2) %
same,"AUCT,ss",[7]; [8],117 (16.3) nmol · h/L
same,"feT,ss",[7]; [8],3.06 (45.1) %
same,fe0-24,"[7]; 5 mg oral once daily for 12 days, gMean (gCV)",0.453 (125) %
same,"feT,ss","[7]; 5 mg oral once daily, steady state (Day 12), gMean (gCV)",6.27 (42.2) %
same,fe0-24,"[7]; 10 mg oral once daily for 12 days, gMean (gCV)",0.919 (115) %
same,"T1/2,ss",[7]; [9],130 (11.7) h
same,"feT,ss",[7]; [9],3.22 (34.2) %
same,form and path of excretion,"[7]; human, in vivo",primarily excreted unchanged via the bile
same,"mean accumulation ratio RA,AUC",[7]; oral doses above 1 mg once daily,≤ 1.4
same,fraction excreted via the kidney,[7]; therapeutic oral dose levels,< 7 % of the administered oral dose
same,main route of excretion,[7]; therapeutic oral dose levels,mainly excreted via the liver
"GLP-1: native glucagon-like peptide (GLP)-1 (7-36) (HAEGTFTSDVSSYLEGQAAKEFIAWLVKGR; ends and bridges not checked; UniProt P01275 98-127, looked up)",effect on nocturnal food intake,[4],rapid-onset suppression of food intake
same,effect of 14 days of monotherapy,[5],no effect

# — patent publication US20130172244A1, “SUBCUTANEOUS THERAPEUTIC USE OF DPP-4 INHIBITOR” (priority 2011, published 2013)
